Values of other authors in patent US5270047A, “Local delivery of dipyridamole for the treatment of proliferative diseases” (priority 1991, dated 1993).

Tested on: vascular restenosis
Conditions: current pharmacologic therapies after PTCA, atherectomy, laser angioplasty, bypass graft surgery; cited from earlier work

| Molecule | effect for the treatment and prevention of vascular restenosis |
| --- | --- |
| O=c1ccc2ccccc2o1 [coumarin] | ineffective for the treatment and prevention of vascular restenosis |
| CC(=O)Oc1ccccc1C(=O)O [aspirin] | ineffective for the treatment and prevention of vascular restenosis |
| CCCCC[C@H](O)/C=C/[C@@H]1[C@H]2C/C(=C/CCCC(=O)O)O[C@H]2C[C@H]1O [prostacyclin] | ineffective for the treatment and prevention of vascular restenosis |
| low molecular weight heparin | ineffective for the treatment and prevention of vascular restenosis |
| heparin | ineffective for the treatment and prevention of vascular restenosis |
